Values of other authors in patent US20110281920A1, “INJECTABLE PARASITICIDAL FORMULATIONS OF LEVAMISOLE AND MACROCYCLIC LACTONES” (priority 2010, published 2011).

Tests used:
[1] = lactating mammals; ratio of 1 = even distribution between milk and plasma

Molecule | milk to plasma partition ratio [1] | Solubility in water
eprinomectin | ~0.2 | nearly water insoluble
c1ccc([C@H]2CN3CCSC3=N2)cc1 [Levamisole] | – | water soluble
